# From PubChem BioAssay (NCI)
#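 Dose response: 5 concentrations. Exposure: 48 h. Format: 96-well plates. Endpoint: linear interpolation; highest concentration if not reached. GI50: concentration for 50% inhibition of growth. Definition used: TGI = concentration required for complete inhibition of growth.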
# How the values were obtained:
# Assay in all cases: NCI tumour cell line growth inhibition, 48 h
# [1] = test system: SF-295 CNS
# [2] = test system: M14 melanoma
# [3] = test system: NCI-H522 lung
# [4] = test system: UACC-62 melanoma
# [5] = test system: DU-145 prostate
# [6] = test system: UACC-257 melanoma
# [7] = test system: SF-539 CNS
# [8] = test system: NCI-H460 lung
# [9] = test system: SF-268 CNS
# [10] = test system: RPMI-8226 leukemia
# [11] = test system: SW-620 colon
# [12] = test system: SK-MEL-2 melanoma
# [13] = test system: RXF 393 renal
# [14] = test system: SN12C renal
# [15] = test system: U251 CNS
# [16] = test system: SK-OV-3 ovarian
# [17] = test system: BT-549 breast
# [18] = test system: NCI-H226 lung
# [19] = test system: SNB-75 CNS
# [20] = test system: MDA-MB-435
# [21] = test system: HOP-62 NSCLC
# [22] = test system: PC-3 prostate
# [23] = test system: A549 NSCLC
# [24] = test system: T-47D breast
# [25] = test system: NCI-H23 lung
# [26] = test system: COLO 205 colon
# [27] = test system: 786-0 renal
# [28] = test system: HOP-92 NSCLC
# [29] = test system: LOX IMVI melanoma
# [30] = test system: OVCAR-5 ovarian
# [31] = test system: SK-MEL-28 melanoma
# [32] = test system: OVCAR-4 ovarian
# [33] = test system: HCC-2998 colon
# [34] = test system: K-562 leukemia
# [35] = test system: ACHN renal
# [36] = test system: NCI/ADR-RES ovarian
# [37] = test system: A498 renal
# [38] = test system: IGROV1 ovarian
# [39] = test system: HL-60(TB) leukemia
# [40] = test system: HS 578T breast
# [41] = test system: MDA-MB-231 breast
# [42] = test system: SNB-19 CNS
# [43] = test system: CAKI-1 renal
# [44] = test system: MOLT-4 leukemia
# [45] = test system: UO-31 renal
# [46] = test system: HCT-116 colon
# [47] = test system: SK-MEL-5 melanoma
# [48] = test system: OVCAR-8 ovarian
# [49] = test system: KM12 colon
# [50] = test system: HT29 colon
# [51] = test system: HCT-15 colon
# [52] = test system: CCRF-CEM leukemia
# [53] = test system: MCF7 breast
# [54] = test system: OVCAR-3 ovarian
# [55] = test system: MALME-3M melanoma
compound,measurement,setting,value
COc1ccc(-n2c(SCc3cc(OC)c(OC)c(OC)c3)nc3ccc(C)cc3c2=O)cc1,GI50,[1],4.36 µM
same,TGI,[1],> 100 µM
same,GI50,[2],4.26 µM
same,TGI,[2],> 100 µM
same,GI50,[3],4.41 µM
same,TGI,[3],> 100 µM
same,GI50,[4],6.82 µM
same,TGI,[4],> 100 µM
same,GI50,[5],> 100 µM
same,TGI,[5],> 100 µM
same,GI50,[6],64.4 µM
same,TGI,[6],> 100 µM
same,GI50,[7],14.8 µM
same,TGI,[7],> 100 µM
same,GI50,[8],3.83 µM
same,TGI,[8],> 100 µM
same,GI50,[9],55.2 µM
same,TGI,[9],> 100 µM
same,GI50,[10],2.55 µM
same,TGI,[10],50.9 µM
same,GI50,[11],4.35 µM
same,TGI,[11],> 100 µM
same,GI50,[12],8.73 µM
same,TGI,[12],> 100 µM
same,GI50,[13],70.4 µM
same,TGI,[13],> 100 µM
same,GI50,[14],52.7 µM
same,TGI,[14],> 100 µM
same,GI50,[15],7.87 µM
same,TGI,[15],> 100 µM
same,GI50,[16],9.74 µM
same,TGI,[16],> 100 µM
same,GI50,[17],7.37 µM
same,TGI,[17],> 100 µM
same,GI50,[18],> 100 µM
same,TGI,[18],> 100 µM
same,GI50,[19],2.76 µM
same,TGI,[19],> 100 µM
same,GI50,[20],1.88 µM
same,TGI,[20],4.72 µM
same,GI50,[21],29.1 µM
same,TGI,[21],> 100 µM
same,GI50,[22],2.83 µM
same,TGI,[22],> 100 µM
same,GI50,[23],4.75 µM
same,TGI,[23],> 100 µM
same,GI50,[24],5.46 µM
same,TGI,[24],> 100 µM
same,GI50,[25],32.7 µM
same,TGI,[25],> 100 µM
same,GI50,[26],5.24 µM
same,TGI,[26],> 100 µM
same,GI50,[27],> 100 µM
same,TGI,[27],> 100 µM
same,GI50,[28],1.75 µM
same,TGI,[28],> 100 µM
same,GI50,[29],17.2 µM
same,TGI,[29],> 100 µM
same,GI50,[30],> 100 µM
same,TGI,[30],> 100 µM
same,GI50,[31],25.9 µM
same,TGI,[31],> 100 µM
same,GI50,[32],9.9 µM
same,TGI,[32],> 100 µM
same,GI50,[33],> 100 µM
same,TGI,[33],> 100 µM
same,GI50,[34],3.89 µM
same,TGI,[34],> 100 µM
same,GI50,[35],42.9 µM
same,TGI,[35],> 100 µM
same,GI50,[36],3.71 µM
same,TGI,[36],> 100 µM
same,GI50,[37],1.95 µM
same,TGI,[37],16.9 µM
same,GI50,[38],> 100 µM
same,TGI,[38],> 100 µM
same,GI50,[39],3.74 µM
same,TGI,[39],> 100 µM
same,GI50,[40],6.06 µM
same,TGI,[40],> 100 µM
same,GI50,[41],5.73 µM
same,TGI,[41],> 100 µM
same,GI50,[42],> 100 µM
same,TGI,[42],> 100 µM
same,GI50,[43],4.53 µM
same,TGI,[43],> 100 µM
same,GI50,[44],5.19 µM
same,TGI,[44],> 100 µM
same,GI50,[45],5.56 µM
same,TGI,[45],> 100 µM
same,GI50,[46],3.38 µM
same,TGI,[46],> 100 µM
same,GI50,[47],3.58 µM
same,TGI,[47],> 100 µM
same,GI50,[48],> 100 µM
same,TGI,[48],> 100 µM
same,GI50,[49],4.57 µM
same,TGI,[49],> 100 µM
same,GI50,[50],4.3 µM
same,TGI,[50],> 100 µM
same,GI50,[51],5.24 µM
same,TGI,[51],> 100 µM
same,GI50,[52],1.58 µM
same,TGI,[52],> 100 µM
same,GI50,[53],3.71 µM
same,TGI,[53],> 100 µM
same,GI50,[54],4.87 µM
same,TGI,[54],> 100 µM
same,GI50,[55],59.8 µM
same,TGI,[55],> 100 µM
